Measured values: PubChem BioAssay AID1963851 (Molecular Pharmacology Branch, DTP, NCI, 2024)
pIC50: −log10 of the molar value. Where “and” joins values, the source holds several entries; their conditions need not be identical. Equal entries are not always repeated.

Test system: 188146-221-R-J1-PDC complex spheroid viability
Assay: Anticancer human tumor 188146-221-R-J1-PDC patient-derived colon adenocarcinoma cell line growth inhibition [POLQ]
Conditions: for viability, T/C: stronger effect = lower value
Procedure: Multicellular complex tumor spheroid response to Polymerase (POL) inhibitors (novobiocin, ART-558, RP6685) in combination with a variety of drugs and investigational agents in selected tumor cell lines
The POL inhibitors (novobiocin, ART-558, and RP6685) were evaluated both individually and in combination with standard of care and investigational anticancer small molecules within a complex spheroid model of solid tumors. . Complex spheroids include a stromal component modeled by human endothelial cells (HUVEC) and fibroblasts modeled by human mesenchymal stem cells (MSCs). The concentration ranges selected for each drug and investigational agent were based upon clinically achievable concentrations if the clinical Cmax of the agent was known.
Compounds. The drugs and investigational agents: novobiocin (NSC847541), ART-558 (NSC835418), RP-6685 (NSC848927), peposertib (NSC802822), ceralasertib (NSC780249), elimusertib (NSC800525), camonsertib (NSC841442), AZD-1390 (NSC803789), olaparib (NSC753686), talazoparib (NSC767125), rucaparib (NSC756644), sotorasib (NSC818433), MRTX-1133 (NSC836407), SN-38 (NSC673596), topotecan (NSC609699), epotoside (NSC141540), doxorubicin (NSC123127), gemcitabine (NSC613327), 5-fluorouracil (NSC19893), paclitaxel (NSC125973), vemurafenib (NSC761431), MSA-2 (NSC828583), SN-011 (NSC837082), adavosertib (NSC754352), prexasertib (NSC758257), carboplatin (NSC241240) and oxaliplatin (NSC266046), were obtained from the National Cancer Institute (NCI) Developmental Therapeutics Program Chemical Repository (21). The FDA-approved anticancer drug set is available from the Developmental Therapeutics Program at https://dtp.cancer.gov/organization/dscb/obtaining/. […] The stock solutions were prepared in dimethyl sulfoxide (DMSO, Sigma-Aldrich, St. Louis, MO, cat. D2650), except for the platinum compounds which were prepared in saline (Quality Biological, Gaithersburg, MD, cat. 114-055-101), at 800-fold the tested concentration and stored at -70 degrees C prior to their use. All drugs and investigational agents were tested over a range starting from a high concentration at or near the clinical Cmax and decreasing in half-log increments. If the clinical Cmax for an agent had not been determined, the highest concentration tested was 10 microM, except for SN-38, which was tested at a high concentration of 1 microM.
Cell Culture. All cells were maintained in an incubator at 37 degrees C and 5% CO2 with 95% humidity. The PDC lines were cultured according to standard operating procedures established by the NCI PDMR (https://pdmr.cancer.gov). Table 3 of the manuscript, lists the cell lines along with the number of the three cell types plated to form the mct-spheroids and media for tumor cell growth. After thawing, all PDC lines, except 997537-175-T-J1-PDC and 415267-285-R-J2-PDC, were cultured in Matrigel-coated flasks prepared with a working solution of 1X Ham's F-12 nutrient mix, without supplementation (Thermo Fisher Scientific, cat. 11765054), 100 U/mL penicillin-streptomycin (Thermo Fisher Scientific, cat. 15140122), and 2.5% Matrigel (Corning Inc., Corning, NY, cat. 354248) for the first three passages. The two PDC lines 997537-175-T-J1-PDC and 415267-285-R-J2-PDC were cultured on uncoated flasks. The 857933-349-R-J2-PDC line was cultured in 6C/Colon 1B media containing advanced DMEM/F-12 (Thermo Fisher Scientific, cat. 12634028), 10 mM HEPES (Thermo Fisher Scientific, cat. 15630080), 1X GlutaMAX supplement (Thermo Fisher Scientific, cat. 35050061), 0.1 mg/mL primocin (InvivoGen, San Diego, CA, cat. ant-pm-2), 10% defined fetal bovine serum, heat inactivated (HyClone Laboratories Inc., Logan, UT, cat. SH30070.03HI), 50% L-WRN conditioned media (ATCC, cat. CRL-3276), 1.25 mM N-Acetyl-L-cysteine (Sigma-Aldrich, cat. A9165), 10 mM nicotinamide (Sigma-Aldrich, cat. N0636), 1X B-27 supplement (Thermo Fisher Scientific, cat. 17504044), 1X N-2 supplement (Thermo Fisher Scientific, cat. […]
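Also: spheroids exposed to compounds for seven days.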
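For viability, T/C in this document: 100% = DMSO vehicle control viability.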

Structure (SMILES): CC1COCCN1c1cc(-c2ccnn2C)c2ccnc(-c3ccn[nH]3)c2n1 (stereo not given)
- viability, T/C (compound 0.0316 µM): 86.5% and 92.4% and 75%
- viability, T/C (compound 0.1 µM): 74.4% and 67.1% and 60.5%
- viability, T/C (compound 0.316 µM): 42.4% and 42.7% and 43.7%
- viability, T/C (compound 1 µM): 19.7% and 27.9% and 21.6%
- viability, T/C (compound 3.16 µM): 17% and 16.9% and 14.9%
- viability, T/C (compound 10 µM): 14.1% and 11.3% and 13.9%
- pIC50 (curve of compound): 6.62 and 6.64 and 6.70

Structure (SMILES): C#Cc1c(F)ccc2cc(O)cc(-c3ncc4c(N5CC6CCC(C5)N6)nc(OCC56CCCN5CC(F)C6)nc4c3F)c12 (stereo not given)
- viability, T/C (compound 0.0316 µM): 100% and 103% and 99.2%
- viability, T/C (compound 0.1 µM): 97.1% and 105% and 99.9%
- viability, T/C (compound 0.316 µM): 90.5% and 81.7% and 89.8%
- viability, T/C (compound 1 µM): 96.4% and 100% (2×)
- viability, T/C (compound 3.16 µM): 98.2% and 99.9% and 104%
- viability, T/C (compound 10 µM): 89.1% and 102% and 85.3%
- pIC50 (curve of compound): < 5.00

Structure (SMILES): O=C(c1cc(Cc2n[nH]c(=O)c3ccccc23)ccc1F)N1CCN(C(=O)C2CC2)CC1
- viability, T/C (compound 0.0316 µM): 95.8% and 103% and 101%
- viability, T/C (compound 0.1 µM): 105% and 101% and 97%
- viability, T/C (compound 0.316 µM): 89.8% and 97.6% and 92.6%
- viability, T/C (compound 1 µM): 90.3% and 81.9% and 108%
- viability, T/C (compound 3.16 µM): 104% and 95.4% and 97.6%
- viability, T/C (compound 10 µM): 73.3% and 74% and 74.6%
- pIC50 (curve of compound): < 5.00

Structure (SMILES): C=CCn1c(=O)c2cnc(Nc3ccc(N4CCN(C)CC4)cc3)nc2n1-c1cccc(C(C)(C)O)n1 + COC1C(OC(N)=O)C(O)C(Oc2ccc3c(O)c(NC(=O)c4ccc(O)c(CC=C(C)C)c4)c(=O)oc3c2C)OC1(C)C
- pIC50 (curve of first compound, second compound 0.0316 µM): < 6.00
- pIC50 (curve of first compound, second compound 0.1 µM): 6.03
- pIC50 (curve of first compound, second compound 0.316 µM): < 6.00
- pIC50 (curve of first compound, second compound 1 µM): < 6.00
- pIC50 (curve of first compound, second compound 3.16 µM): < 6.00
- pIC50 (curve of first compound, second compound 10 µM): 6.04
- viability, T/C (second compound 0.0316 µM, first compound 0.00316 µM): 106%
- viability, T/C (second compound 0.0316 µM, first compound 0.01 µM): 99.2%
- viability, T/C (second compound 0.0316 µM, first compound 0.0316 µM): 103%
- viability, T/C (second compound 0.0316 µM, first compound 0.1 µM): 101%
- viability, T/C (second compound 0.0316 µM, first compound 0.316 µM): 98%
- viability, T/C (second compound 0.0316 µM, first compound 1 µM): 51.5%
- viability, T/C (second compound 0.1 µM, first compound 0.00316 µM): 111%
- viability, T/C (second compound 0.1 µM, first compound 0.01 µM): 106%
- viability, T/C (second compound 0.1 µM, first compound 0.0316 µM): 101%
- viability, T/C (second compound 0.1 µM, first compound 0.1 µM): 98%
- viability, T/C (second compound 0.1 µM, first compound 0.316 µM): 91.5%
- viability, T/C (second compound 0.1 µM, first compound 1 µM): 46.8%
- viability, T/C (second compound 0.316 µM, first compound 0.00316 µM): 85.1%
- viability, T/C (second compound 0.316 µM, first compound 0.01 µM): 106%
- viability, T/C (second compound 0.316 µM, first compound 0.0316 µM): 96.5%
- viability, T/C (second compound 0.316 µM, first compound 0.1 µM): 101%
- viability, T/C (second compound 0.316 µM, first compound 0.316 µM): 97.6%
- viability, T/C (second compound 0.316 µM, first compound 1 µM): 56.3%
- viability, T/C (second compound 1 µM, first compound 0.00316 µM): 108%
- viability, T/C (second compound 1 µM, first compound 0.01 µM): 100%
- viability, T/C (second compound 1 µM, first compound 0.0316 µM): 102%
- viability, T/C (second compound 1 µM, first compound 0.1 µM): 95.9%
- viability, T/C (second compound 1 µM, first compound 0.316 µM): 87.7%
- viability, T/C (second compound 1 µM, first compound 1 µM): 55.2%
- viability, T/C (second compound 3.16 µM, first compound 0.00316 µM): 102%
- viability, T/C (second compound 3.16 µM, first compound 0.01 µM): 98.9%
- viability, T/C (second compound 3.16 µM, first compound 0.0316 µM): 108%
- viability, T/C (second compound 3.16 µM, first compound 0.1 µM): 98.4%
- viability, T/C (second compound 3.16 µM, first compound 0.316 µM): 98%
- viability, T/C (second compound 3.16 µM, first compound 1 µM): 56.3%
- viability, T/C (second compound 10 µM, first compound 0.00316 µM): 109%
- viability, T/C (second compound 10 µM, first compound 0.01 µM): 96.9%
- viability, T/C (second compound 10 µM, first compound 0.0316 µM): 100%
- viability, T/C (second compound 10 µM, first compound 0.1 µM): 100%
- viability, T/C (second compound 10 µM, first compound 0.316 µM): 98.1%
- viability, T/C (second compound 10 µM, first compound 1 µM): 45.6%

Structure (SMILES): CNCc1ccc(-c2[nH]c3cc(F)cc4c3c2CCNC4=O)cc1
- viability, T/C (compound 0.0316 µM): 111% and 108% and 115%
- viability, T/C (compound 0.1 µM): 108% and 97.9% and 106%
- viability, T/C (compound 0.316 µM): 102% and 109% and 99.4%
- viability, T/C (compound 1 µM): 105% and 104% and 103%
- viability, T/C (compound 3.16 µM): 112% and 105% and 113%
- viability, T/C (compound 10 µM): 100% and 99.3% and 95.5%
- pIC50 (curve of compound): < 5.00
